Measurements from the NIST ThermoML archive (doi:10.1021/acs.jced.6b00350).
Values joined by “and” are separate entries in the source; they are usually repeats but may differ in a detail not shown here. Equal values may be shown once.

Details: Liquid, Hot wire method

FC(F)CC(F)(F)F [1,1,1,3,3-pentafluoropropane]
Details | thermal conductivity
262.46 K, 31214 kPa | 0.1107 W/m/K
262.47 K, 25250 kPa | 0.1091 W/m/K
262.47 K, 31210 kPa | 0.1107 W/m/K
262.48 K, 8852 kPa | 0.1036 W/m/K
262.48 K, 14086 kPa | 0.1051 W/m/K
262.48 K, 14126 kPa | 0.1053 W/m/K
262.49 K, 4309 kPa | 0.1016 W/m/K
262.49 K, 4315 kPa | 0.1017 W/m/K
262.5 K, 19581 kPa | 0.1068 W/m/K
262.51 K, 19565 kPa | 0.1063 W/m/K
262.54 K, 274 kPa | 0.09981 W/m/K
262.55 K, 264 kPa | 0.09976 W/m/K
262.84 K, 36891 kPa | 0.1121 W/m/K
262.84 K, 36917 kPa | 0.112 W/m/K
262.84 K, 43922 kPa | 0.1137 W/m/K
262.85 K, 43951 kPa | 0.1138 W/m/K
262.85 K, 51258 kPa | 0.1158 W/m/K
262.86 K, 51253 kPa | 0.1158 W/m/K
262.86 K, 58802 kPa | 0.1175 W/m/K
262.87 K, 58823 kPa | 0.1177 W/m/K
262.87 K, 68778 kPa | 0.12 W/m/K
262.87 K, 68811 kPa | 0.1201 W/m/K
262.89 K, 68892 kPa | 0.1203 W/m/K
262.9 K, 68869 kPa | 0.1204 W/m/K
262.97 K, 25291 kPa | 0.1088 W/m/K
262.97 K, 31137 kPa | 0.1104 W/m/K
262.97 K, 31171 kPa | 0.1105 W/m/K
262.98 K, 25286 kPa | 0.1085 W/m/K
263 K, 8795 kPa | 0.1032 W/m/K
263 K, 14094 kPa | 0.105 W/m/K
263 K, 14117 kPa | 0.1048 W/m/K
263.01 K, 8802 kPa | 0.1032 W/m/K
263.01 K, 19580 kPa | 0.1068 W/m/K
263.01 K, 19587 kPa | 0.1069 W/m/K
263.02 K, 4283 kPa | 0.1017 W/m/K
263.04 K, 4280 kPa | 0.1019 W/m/K
263.09 K, 251 kPa | 0.09992 W/m/K
263.09 K, 258 kPa | 0.1003 W/m/K
263.37 K, 43936 kPa | 0.1139 W/m/K
263.37 K, 51250 kPa | 0.1158 W/m/K
263.37 K, 68817 kPa | 0.1201 W/m/K
263.38 K, 43899 kPa | 0.1139 W/m/K
263.38 K, 51246 kPa | 0.1158 W/m/K
263.38 K, 58767 kPa | 0.1179 W/m/K
263.38 K, 58789 kPa | 0.1175 W/m/K
263.38 K, 68795 kPa | 0.12 W/m/K
263.39 K, 68867 kPa | 0.1202 W/m/K
263.39 K, 68877 kPa | 0.1202 W/m/K
281.24 K, 123 kPa | 0.09294 W/m/K
281.26 K, 5085 kPa | 0.09534 W/m/K
281.26 K, 10502 kPa | 0.09742 W/m/K
281.26 K, 16109 kPa | 0.09972 W/m/K
281.27 K, 5081 kPa | 0.09537 W/m/K
281.27 K, 10497 kPa | 0.09773 W/m/K
281.27 K, 16120 kPa | 0.09962 W/m/K
281.27 K, 36450 kPa | 0.1067 W/m/K
281.28 K, 29163 kPa | 0.1037 W/m/K and 0.1042 W/m/K
281.28 K, 36455 kPa | 0.1069 W/m/K
281.29 K, 22340 kPa | 0.1017 W/m/K and 0.1016 W/m/K
281.31 K, 44258 kPa | 0.1094 W/m/K
281.32 K, 44270 kPa | 0.1086 W/m/K
281.36 K, 52956 kPa | 0.1121 W/m/K
281.37 K, 61439 kPa | 0.1132 W/m/K
281.37 K, 61447 kPa | 0.1138 W/m/K
281.39 K, 68582 kPa | 0.1153 W/m/K
281.4 K, 68575 kPa | 0.1156 W/m/K
281.68 K, 36448 kPa | 0.1069 W/m/K
281.69 K, 123 kPa | 0.09324 W/m/K
281.69 K, 16102 kPa | 0.09989 W/m/K
281.69 K, 16110 kPa | 0.0999 W/m/K
281.69 K, 36460 kPa | 0.1069 W/m/K
281.7 K, 123 kPa | 0.09319 W/m/K
281.7 K, 10499 kPa | 0.09772 W/m/K
281.7 K, 29156 kPa | 0.1046 W/m/K
281.71 K, 10506 kPa | 0.09793 W/m/K
281.71 K, 29164 kPa | 0.1045 W/m/K
281.71 K, 44250 kPa | 0.109 W/m/K
281.72 K, 5099 kPa | 0.09526 W/m/K
281.72 K, 22328 kPa | 0.1023 W/m/K
281.72 K, 22339 kPa | 0.1018 W/m/K
281.72 K, 44261 kPa | 0.1096 W/m/K
281.73 K, 5092 kPa | 0.09542 W/m/K
281.74 K, 52967 kPa | 0.1113 W/m/K
281.74 K, 61451 kPa | 0.1132 W/m/K
281.75 K, 52979 kPa | 0.1116 W/m/K
281.75 K, 61458 kPa | 0.1139 W/m/K
281.78 K, 68577 kPa | 0.1148 W/m/K
281.78 K, 68579 kPa | 0.1154 W/m/K
282.14 K, 36443 kPa | 0.1066 W/m/K
282.14 K, 36448 kPa | 0.1061 W/m/K
282.16 K, 44239 kPa | 0.109 W/m/K
282.16 K, 44256 kPa | 0.1087 W/m/K
282.17 K, 29157 kPa | 0.1038 W/m/K
282.17 K, 29166 kPa | 0.1045 W/m/K
282.18 K, 16109 kPa | 0.09967 W/m/K
282.18 K, 52974 kPa | 0.1114 W/m/K
282.18 K, 61442 kPa | 0.114 W/m/K
282.18 K, 61445 kPa | 0.1137 W/m/K
282.19 K, 16097 kPa | 0.09999 W/m/K
282.19 K, 52971 kPa | 0.1111 W/m/K
282.2 K, 10491 kPa | 0.09788 W/m/K
282.2 K, 22326 kPa | 0.1018 W/m/K
282.2 K, 22330 kPa | 0.1022 W/m/K
282.21 K, 122 kPa | 0.09344 W/m/K
282.21 K, 123 kPa | 0.09288 W/m/K
282.21 K, 10493 kPa | 0.0975 W/m/K
282.21 K, 68577 kPa | 0.1158 W/m/K
282.22 K, 5074 kPa | 0.09546 W/m/K
282.22 K, 68599 kPa | 0.1157 W/m/K
282.23 K, 5088 kPa | 0.0957 W/m/K
282.64 K, 61432 kPa | 0.1136 W/m/K
282.65 K, 36437 kPa | 0.1064 W/m/K
282.65 K, 44235 kPa | 0.109 W/m/K
282.65 K, 61439 kPa | 0.1136 W/m/K
282.66 K, 44247 kPa | 0.1092 W/m/K
282.67 K, 52971 kPa | 0.1109 W/m/K
282.67 K, 52972 kPa | 0.1115 W/m/K
282.68 K, 29156 kPa | 0.104 W/m/K
282.68 K, 29162 kPa | 0.104 W/m/K
282.68 K, 68589 kPa | 0.1157 W/m/K
282.69 K, 68577 kPa | 0.1155 W/m/K
282.71 K, 16110 kPa | 0.09975 W/m/K and 0.09954 W/m/K
282.72 K, 22340 kPa | 0.1019 W/m/K
282.73 K, 22342 kPa | 0.1021 W/m/K
282.74 K, 10500 kPa | 0.09762 W/m/K
282.77 K, 5087 kPa | 0.09576 W/m/K
282.78 K, 123 kPa | 0.09344 W/m/K and 0.09326 W/m/K
282.78 K, 5079 kPa | 0.0959 W/m/K
283.17 K, 61441 kPa | 0.1135 W/m/K
283.17 K, 61445 kPa | 0.1138 W/m/K
283.19 K, 68547 kPa | 0.1156 W/m/K
283.19 K, 68582 kPa | 0.1158 W/m/K
283.2 K, 36442 kPa | 0.1068 W/m/K
283.2 K, 36446 kPa | 0.1068 W/m/K
283.2 K, 44231 kPa | 0.109 W/m/K
283.2 K, 44239 kPa | 0.1089 W/m/K
283.2 K, 52973 kPa | 0.1113 W/m/K
283.21 K, 52984 kPa | 0.1112 W/m/K
